Data: ChEMBL document CHEMBL5390217, “Structure Confirmation of Dechlorotrichotoxin A through Stereoselective Total Synthesis” (2023)
Calls of active or inactive are those of the source. The calls are words filed in the database; no cut-off is given here.

Tests used:
U-937 = assay: Antiproliferative activity against human U-937 cells assessed as inhibition of cell growth at 30 uM incubated for 48 hrs in presence of 10% FBS by CCK-8 assay relative to control; type: functional; set-up: scale not given: the % may be the effect or the level left
MCF7 [1] = assay: Antiproliferative activity against human MCF7 cells assessed as inhibition of cell growth at 30 uM incubated for 48 hrs in presence of 10% FBS by CCK-8 assay relative to control; type: functional; set-up: scale not given: the % may be the effect or the level left
MCF7 [2] = assay: Antiproliferative activity against human MCF7 cells assessed as inhibition of cell growth at 30 uM incubated for 48 hrs in presence of 10% FBS by CCK-8 assay; type: functional, cell-based

| Structure (SMILES) | Activity (U-937) | Activity (MCF7 [1]) | Activity (MCF7 [2]) |
| --- | --- | --- | --- |
| C=CC[C@@H](O)/C(C)=C/[C@@H](C)CCC(=C)Cc1ccccc1 | 44% | 21% | – |
| C=CC[C@@H](O)/C(C)=C/[C@@H](C)CCC(=CCl)Cc1ccccc1 (mixture of isomers) | 20% | – | inactive |
